From US12577241B2, “Polycyclic pyridopyrazine derivative” (Shionogi & Co., Ltd., priority 2019, dated 2026)

Key:
[1] = tested on: HIV; experiment: Test Example 1: Anti-HIV activity (MT-4 cells, CellTiter-Glo); assay type: cell-based; conditions: Human immunodeficiency virus 1, MT4, 96 h, 4 days culture, CellTiter-Glo luminescence, read-out: EC50 (50% HIV inhibitory concentration)
Description: Test Example 1: Anti-HIV Activity
Serial dilutions of a test sample were prepared in a 384-well microplate by a dispensing machine. 6.25×10^4 cells/mL of a MT-4 cell suspension was dispensed at 20 μL/well to the plate containing the test sample. Then, an HIV virus solution was dispensed at 20 μL/well. The plate was mixed with a plate mixer and cultured for 4 days in a CO2 incubator. On day 4 of culture, CellTiter-Glo or CellTiter-Glo 2.0 was dispensed at 20 μL/well. The plate was reacted while being stirred with the plate mixer at room temperature for about 15 minutes. The amount of luminescence of the plate after the reaction was measured with a microplate reader. A 50% HIV inhibitory concentration (EC50) was determined from a concentration-dependent curve using the following 4 parameter logistic curve fitting model. y=A+((B−A)/(1+((C/x)^D))) • A=minimum rate of inhibition (negative control, 0%) • B=maximum rate of inhibition (positive control, 100%) • C=compound concentration at an inflection point • D=slope coefficient • x=compound concentration • y=rate of inhibition (%) (Results)

[2] = tested on: HIV mutant strains (E92Q/E138T/G140S/Q148H); experiment: Test Example 2: Resistance evaluation test (HeLa-CD4 cells, wild and mutant strain); assay type: cell-based; conditions: 3 days
Description: Test Example 2: Resistance Evaluation Test
Serial dilutions of a test sample were prepared in a 96-well microplate (50 μL/well). 2.5×10^5 cells/mL of a HeLa-CD4 cell suspension was dispensed at 100 μL/well to the plate containing the test sample. Then, an HIV virus solution (wild strain and mutant strain) was dispensed at 50 μL/well. The plate was mixed with a plate mixer and cultured for 3 days in a CO2 incubator. The culture supernatant in each well was removed by suction. A cell lysis buffer was dispensed at 100 μL/well, and the plate was frozen in a freezer (−80° C.). The plate frozen in a freezer was thawed at room temperature, then mixed with a plate mixer, and centrifuged at 1,200 rpm for 5 minutes. Beta-Glo Reagent was dispensed at 20 μL/well to a 384-well microplate, 2 μL of the supernatant of each well (diluted as necessary) of the plate after centrifugation was added, and then the mixture was reacted at room temperature for about 30 minutes. The amount of luminescence of the plate after the reaction was measured with a microplate reader. A 50% HIV inhibitory concentration (EC50) was determined from a concentration-dependent curve using the following 4 parameter logistic curve fitting model. y=A+((B−A)/(1+((C/x)^D))) • A=minimum rate of inhibition (negative control, 0%) • B=maximum rate of inhibition (positive control, 100%) • C=compound concentration at an inflection point • D=slope coefficient • x=compound concentration • y=rate of inhibition (%)
The degree of resistance (fold change (FC)) of each mutant strain was calculated according to the following expression. • FC=EC50 of the mutant strain/EC50 of the wild strain (Results)

[3] = Test Example 6: Clearance evaluation test; assay type: in vivo, Rats; conditions: plasma, 1 umol/kg, rat, intravenous 1 μmol/kg; for half-life: read-out: Elimination half-life (t½) (converted); for clearance: read-out: Total body clearance (CLtot)
Source text: Test Example 6: Clearance Evaluation Test Experimental Material and Method (1) Animals used: Rats were used. (2) Breeding conditions: The rats were allowed to freely take solid food and sterilized tap water. (3) Dose and grouping setting: A predetermined dose was intravenously administered. Groups were set as follows: Intravenous administration: 1 μmol/kg (n=2) (4) Preparation of dosing solution: The test sample was solubilized using a solvent of dimethyl sulfoxide/propylene glycol=1/1 and administered. (5) Administration method: The test sample was administered to the tail vein through a syringe with an injection needle. (6) Evaluation item: Blood was collected over time, and the concentration of the compound of the present invention in plasma was measured using LC/MS/MS. (7) Statistical analysis: Total body clearance (CLtot) and elimination half-life (t½) were calculated as to change in the concentration of the compound of the present invention in plasma by the moment analysis method.

[4] = tested on: HIV; experiment: Test Example 14: Anti-HIV activity evaluation test in presence of human serum protein; assay type: cell-based; conditions: MT-4 cells; PS=4×(EC50 with 25% human serum protein/EC50 without); 100% extrapolated value
Description: Test Example 14: Anti-HIV Activity Evaluation Test in Presence of Human Serum Protein
Serial dilutions of a test sample were prepared in a 384-well microplate by a dispensing machine. A human serum protein solution (human serum protein concentration 50%) was dispensed at 20 μL/well to a 384-well microplate containing the test sample and left to stand still at room temperature for 1 hour. A culturing solution was dispensed at 20 μL/well to a plate for the absence of serum. 1 mL of 3.0×10^6 cells/mL of MT-4 cells and a 300 μL HIV virus solution were mixed and reacted at 37° C. for 1 hour. After the reaction, the cell suspension was centrifuged to discard the supernatant, the infected cells were dispersed in 40 mL of a culturing solution and the resultant solution was dispensed at 20 μL/well to a 384-well microplate containing the test sample and the human serum protein (human serum protein final concentration: 25%). The plate was mixed with a plate mixer and cultured for 4 days in a CO2 incubator. On day 4 of culture, CellTiter-Glo or CellTiter-Glo 2.0 was dispensed at 20 μL/well. The plate was reacted while being stirred with the plate mixer at room temperature for about 15 minutes. The amount of luminescence of the plate after the reaction was measured with a microplate reader. […]
The potency shift (PS) was calculated on the basis of the following calculation formula. […]

[5] = tested on: HIV; experiment: Test Example 1B: Anti-HIV activity (MT-4 cells, MTT); assay type: cell-based; conditions: Human immunodeficiency virus 1, MT4, 96 h, 4 days culture, MTT absorbance, read-out: EC50 (50% HIV inhibitory concentration)
Description: Test Example 1B: Anti-HIV Activity
Serial dilutions of a test sample were prepared in a 96-well microplate (50 μL/well). 2.5×10^5 cells/mL of a MT-4 cell suspension was dispensed at 100 μL/well to the plate containing the test sample. Then, an HIV virus solution was dispensed at 50 μL/well. The plate was mixed with a plate mixer and cultured for 4 days in a CO2 incubator. An MTT (3-(4,5-dimethylthiazol-2-yl)-2,5-diphenyltetrazolium bromide) solution was dispensed at 30 μL/well. The plate was reacted for 1 hour in a CO2 incubator. 150 μL of the supernatant was removed from each well so as not to take up the cells. 150 μL of a cell lysis solution was added to each well and well mixed with a plate mixer until the cells were completely lysed. The absorbance of the mixed plate was measured at two wavelengths of 560 nm and 690 nm using a microplate reader. A 50% HIV inhibitory concentration (EC50) was determined from a concentration-dependent curve using the following 4 parameter logistic curve fitting model. y=A+((B−A)/(1+(C/x)^D)) • A=minimum rate of inhibition (negative control, 0%) • B=maximum rate of inhibition (positive control, 100%) • C=compound concentration at an inflection point • D=slope coefficient • x=compound concentration • y=rate of inhibition (%) (Results)

[6] = Test Example 7: Metabolism stability test; assay type: in vitro ADME; conditions: human liver microsomes 0.5 mg protein/mL, 30 minutes, 37° C., NADPH, compound concentration 0.5 μmol/L
Description: Test Example 7: Metabolism Stability Test Commercially available pooled human liver microsomes were reacted with the compound of the present invention for a given time. A residual rate was calculated by the comparison between the reacted sample and an unreacted sample to evaluate the degree at which the compound of the present invention was metabolized in the liver. The compound was reacted at 37° C. for 0 minutes or 30 minutes in the presence of 1 mmol/L NADPH in 0.2 mL of a buffer solution (50 mmol/L Tris-HCl pH 7.4, 150 mmol/L potassium chloride, and 10 mmol/L magnesium chloride) containing 0.5 mg protein/mL of the human liver microsomes (oxidative reaction). After the reaction, 50 μL of the reaction solution was added to 100 μL of a solution of methanol/acetonitrile=1/1 (v/v), and the mixture was mixed and centrifuged at 3000 rpm for 15 minutes. The compound of the present invention in the centrifugation supernatant was quantified by LC/MS/MS or solid-phase extraction (SPE)/MS. The amount of the compound of the present invention remaining after the reaction was calculated with the amount of the compound at 0 minutes of the reaction defined as 100%.

[7] = molecular target: T1, Nav 1.5 channel (Homo sapiens, UniProt Q14524); experiment: Test Example 13: Nav test; assay type: cell-based; conditions: HEK cells expressing Nav 1.5 channel, INa, whole cell patch clamp, relative to vehicle
T1 construct: expressed in transfected cells; host or cells: HEK cells
Source text: Test Example 13: Nav Test
For the purpose of assessing proarrhythmic risk of the compound of the present invention, effects of the compound of the present invention on Na^+ current (INa), which plays an important role in the myocardial depolarization process, was studied using HEK cells expressing Voltage gated sodium channel (Nav 1.5 channel) encoded by SCNSA gene.
After a cell was retained at a membrane potential of −100 mV by the whole cell patch clamp method using an automated patch clamp system (QPatch; Sophion Bioscience A/S), INa induced by depolarization pulse stimulation at −10 mV for 20 milliseconds was recorded. An extracellular fluid (NaCl: 145 mmol/L, KCl 4 mmol/L, CaCl2: 2 mmol/L, MgCl2: 1 mmol/L, glucose: 10 mmol/L, HEPES (4-(2-hydroxyethyl)-1-piperazineethanesulfonic acid): 10 mmol/L, tetraethylammonium hydroxide (TEA): 10 mmol/L, pH=7.4) adjusted to 0.3% with dimethyl sulfoxide was used as a vehicle to apply the vehicle and the extracellular fluid containing the compound of the present invention dissolved at a concentration of interest to the cells under conditions of room temperature for 5 minutes or longer. From the obtained INa, the absolute value of the maximum peak current based on the current value at the membrane potential where the cells have been kept was measured using analytical software (QPatch Assay software; Sophion Bioscience A/S). The ratio of the maximum peak current at the time of applying the compound of the present invention to the maximum peak current at the time of applying the vehicle and the electric charge amount at the time of applying the compound of the present invention with respect to the electric charge amount at the time of applying vehicle were calculated, and the influence of the compound of the present invention on INa was evaluated.

T1 sequence (Q14524 whole entry): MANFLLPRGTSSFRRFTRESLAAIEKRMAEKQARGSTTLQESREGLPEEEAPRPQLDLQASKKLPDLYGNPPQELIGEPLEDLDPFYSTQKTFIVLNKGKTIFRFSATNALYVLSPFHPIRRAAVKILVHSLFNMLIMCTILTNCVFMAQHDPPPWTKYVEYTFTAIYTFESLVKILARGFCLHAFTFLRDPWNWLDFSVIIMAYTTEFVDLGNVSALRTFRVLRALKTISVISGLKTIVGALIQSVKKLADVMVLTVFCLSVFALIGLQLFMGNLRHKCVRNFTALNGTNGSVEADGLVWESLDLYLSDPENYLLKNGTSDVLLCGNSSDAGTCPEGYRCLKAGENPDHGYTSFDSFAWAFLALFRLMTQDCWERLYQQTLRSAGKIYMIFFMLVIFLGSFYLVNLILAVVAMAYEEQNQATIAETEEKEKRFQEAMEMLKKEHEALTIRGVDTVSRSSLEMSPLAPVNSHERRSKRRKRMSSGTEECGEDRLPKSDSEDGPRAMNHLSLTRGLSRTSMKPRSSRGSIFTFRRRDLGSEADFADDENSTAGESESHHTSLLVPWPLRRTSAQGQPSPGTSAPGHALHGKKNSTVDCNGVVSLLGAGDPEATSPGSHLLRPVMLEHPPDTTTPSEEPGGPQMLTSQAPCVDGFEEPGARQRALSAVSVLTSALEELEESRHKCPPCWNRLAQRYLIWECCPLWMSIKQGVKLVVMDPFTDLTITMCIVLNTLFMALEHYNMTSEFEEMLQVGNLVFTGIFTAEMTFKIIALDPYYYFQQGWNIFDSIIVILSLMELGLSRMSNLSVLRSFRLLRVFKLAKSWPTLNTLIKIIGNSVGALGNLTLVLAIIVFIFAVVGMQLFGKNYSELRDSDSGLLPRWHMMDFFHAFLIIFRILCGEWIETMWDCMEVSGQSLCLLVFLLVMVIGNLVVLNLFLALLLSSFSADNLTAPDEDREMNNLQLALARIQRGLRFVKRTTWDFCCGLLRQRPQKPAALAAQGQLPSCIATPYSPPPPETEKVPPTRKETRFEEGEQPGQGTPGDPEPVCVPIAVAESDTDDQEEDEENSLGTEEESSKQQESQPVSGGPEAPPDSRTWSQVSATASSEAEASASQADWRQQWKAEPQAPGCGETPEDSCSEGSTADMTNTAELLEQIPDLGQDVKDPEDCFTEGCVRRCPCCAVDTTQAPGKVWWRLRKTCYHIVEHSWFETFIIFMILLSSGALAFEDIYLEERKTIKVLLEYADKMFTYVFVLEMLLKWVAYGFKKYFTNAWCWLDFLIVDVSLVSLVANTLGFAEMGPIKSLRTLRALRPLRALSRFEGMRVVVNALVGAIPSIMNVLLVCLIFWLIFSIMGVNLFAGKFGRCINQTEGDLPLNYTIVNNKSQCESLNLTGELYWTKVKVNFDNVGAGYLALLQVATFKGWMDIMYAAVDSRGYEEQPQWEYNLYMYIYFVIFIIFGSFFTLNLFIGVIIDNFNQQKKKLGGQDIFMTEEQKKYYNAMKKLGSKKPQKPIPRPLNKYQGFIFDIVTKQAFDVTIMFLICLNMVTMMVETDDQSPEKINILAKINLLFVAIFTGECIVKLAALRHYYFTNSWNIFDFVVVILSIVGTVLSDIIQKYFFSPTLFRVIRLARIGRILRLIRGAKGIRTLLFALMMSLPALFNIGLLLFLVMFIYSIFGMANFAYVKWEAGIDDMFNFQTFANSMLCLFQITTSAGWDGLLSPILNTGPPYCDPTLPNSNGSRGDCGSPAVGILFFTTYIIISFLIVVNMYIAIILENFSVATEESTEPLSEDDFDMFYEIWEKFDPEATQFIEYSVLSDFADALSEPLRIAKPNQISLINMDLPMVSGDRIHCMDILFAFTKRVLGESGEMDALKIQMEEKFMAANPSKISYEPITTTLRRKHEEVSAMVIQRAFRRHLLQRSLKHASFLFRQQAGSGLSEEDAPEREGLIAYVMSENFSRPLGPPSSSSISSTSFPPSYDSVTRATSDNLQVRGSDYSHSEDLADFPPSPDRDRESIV

With `CCN1C(=O)c2c(O)c(=O)c(C(=O)NCc3cccc(Cl)c3F)cn2[C@@H]2[C@H]1CCCC2(F)F` [Compound I-005] as the compound, how does the EC50 [1] read?
The EC50 was 1 nM.

What about the “FC (fold change, degree of resistance) = EC50 of the mutant strain/EC50 of the wild strain” value [2] of the same compound?
The value was 6.7.

And the half-life [3]?
Its half-life is 10.9 h.

And the clearance [3]?
The clearance was 7.02 mL/h/kg.

What about the “Potency shift (PS) in the presence of human serum protein” value [4] of the same compound?
Its value is 104.

With `CCN1C(=O)c2c(O)c(=O)c(C(=O)NCc3nccc(Cl)c3F)cn2[C@@H]2CC(F)(F)CC[C@@H]21` [Compound I-041] as the compound, how does the EC50 [5] read?
Its EC50 is 12 nM.

For `CCN1C(=O)c2c(O)c(=O)c(C(=O)NCc3cccc(Cl)c3F)cn2[C@H]2C[C@@H](COC)CC[C@H]21` [Compound I-014], which EC50 [1] is on record?
The EC50 was 3.8 nM.

And the “FC (fold change, degree of resistance) = EC50 of the mutant strain/EC50 of the wild strain” value [2]?
The value was 4.1.

Which EC50 [5] does the source give for `CCN1C(=O)c2c(O)c(=O)c(C(=O)NCc3cccc(Cl)c3F)cn2[C@H]2[C@@H]1[C@@H]1CC[C@H]2O1` [Compound I-043] here?
The EC50 was 6.2 nM.

For `CCN1C(=O)c2c(O)c(=O)c(C(=O)NCc3nccc(Cl)c3F)cn2[C@H]2CC(F)(F)CC[C@H]21` [Compound I-042], which EC50 [5] is on record?
Its EC50 is 7.9 nM.

With `CCN1C(=O)c2c(O)c(=O)c(C(=O)NCc3nccc(Cl)c3F)cn2[C@H]2Cc3ccccc3[C@H]21` [Compound I-034] as the compound, how does the EC50 [5] read?
The EC50 was 12 nM.

For `CCN1C(=O)c2c(O)c(=O)c(C(=O)NCc3cccc(Cl)c3F)cn2[C@H]2CCC3(CC3)C[C@H]21` [Compound I-036], which EC50 [5] is on record?
The EC50 was 7.1 nM.

With `CCN1C(=O)c2c(O)c(=O)c(C(=O)NCc3ccc(F)cc3F)cn2[C@H]2[C@@H]1CCC2(F)F` [Compound I-037] as the compound, how does the EC50 [5] read?
The EC50 was 3.6 nM.

For `CCN1C(=O)c2c(O)c(=O)c(C(=O)NCc3ccc(F)cc3F)cn2[C@H]2Cc3ccccc3[C@H]21` [Compound I-035], which EC50 [5] is on record?
Its EC50 is 5.4 nM.

Which EC50 [5] does the source give for `CCN1C(=O)c2c(O)c(=O)c(C(=O)NCc3ccc(F)cc3F)cn2[C@@H]2[C@H]1CCC2(F)F` [Compound I-038] here?
The EC50 was 4.3 nM.

For `CCN1C(=O)c2c(O)c(=O)c(C(=O)NCc3nccc(Cl)c3F)cn2[C@H]2CCCC[C@H]21` [Compound I-003], which EC50 [1] is on record?
The EC50 was 3.9 nM.

What about the Remaining rate [6] of the same compound?
The Remaining rate was 91.7%.

What does the source list for `CCN1C(=O)c2c(O)c(=O)c(-c3nnc(Cc4ccc(F)cc4F)s3)cn2[C@H]2CCCC[C@H]21` [Compound I-017]?
EC50 [1]: 4.2 nM; FC (fold change, degree of resistance) = EC50 of the mutant strain/EC50 of the wild strain [2]: 6.0; half-life [3]: 15.3 h; clearance [3]: 4.27 mL/h/kg; electric charge amount increase rate [7]: 133%; maximum current amount increase rate [7]: 95.6%

Which EC50 [5] does the source give for `CCN1C(=O)c2c(O)c(=O)c(C(=O)NCc3nccc(Cl)c3F)cn2[C@@H]2[C@H]1CCC2(F)F` [Compound I-040] here?
The EC50 was 13 nM.

Which EC50 [5] does the source give for `CCN1C(=O)c2c(O)c(=O)c(C(=O)NCc3nccc(Cl)c3F)cn2[C@H]2[C@@H]1CCC2(F)F` [Compound I-039] here?
The EC50 was 9.8 nM.

With `CCN1C(=O)c2c(O)c(=O)c(C(=O)NCc3cccc(Cl)c3F)cn2[C@@H]2[C@H]1[C@H]1CC[C@@H]2O1` [Compound I-044] as the compound, how does the EC50 [5] read?
The EC50 was 7 nM.

For `CCN1C(=O)c2c(O)c(=O)c(C(=O)NCc3cccc(Cl)c3F)cn2[C@H]2Cc3ccccc3[C@H]21` [Compound I-033], which EC50 [5] is on record?
Its EC50 is 9.7 nM.
